# Data: ChEMBL document CHEMBL5325403, “Benzenesulfonyl thiazoloimines as unique multitargeting antibacterial agents towards Enterococcus faecalis” (Eur J Med Chem, 2023)
# Assays:
# Assay type in all cases: functional
# [1] = test system: Staphylococcus aureus; assay: Antibacterial activity against methicillin-resistant Staphylococcus aureus N315 assessed as inhibition of bacterial growth by continuous dilution method
# [2] = test system: Enterococcus faecalis; assay: Antibacterial activity against Enterococcus faecalis assessed as inhibition of bacterial growth by continuous dilution method
# [3] = test system: Staphylococcus aureus; assay: Antibacterial activity against Staphylococcus aureus assessed as inhibition of bacterial growth by continuous dilution method
# [4] = test system: Staphylococcus aureus; assay: Antibacterial activity against Staphylococcus aureus ATCC 25923 assessed as inhibition of bacterial growth by continuous dilution method
# [5] = test system: Staphylococcus aureus; assay: Antibacterial activity against Staphylococcus aureus ATCC 29213 assessed as inhibition of bacterial growth by continuous dilution method
# [6] = test system: Klebsiella pneumoniae; assay: Antibacterial activity against Klebsiella pneumoniae assessed as inhibition of bacterial growth by continuous dilution method
# [7] = test system: Escherichia coli; assay: Antibacterial activity against Escherichia coli assessed as inhibition of bacterial growth by continuous dilution method
# [8] = test system: Pseudomonas aeruginosa; assay: Antibacterial activity against Pseudomonas aeruginosa assessed as inhibition of bacterial growth by continuous dilution method
# [9] = test system: Acinetobacter baumannii; assay: Antibacterial activity against Acinetobacter baumannii assessed as inhibition of bacterial growth by continuous dilution method
# [10] = test system: Pseudomonas aeruginosa; assay: Antibacterial activity against Pseudomonas aeruginosa ATCC 27853 assessed as inhibition of bacterial growth by continuous dilution method
# [11] = test system: Escherichia coli; assay: Antibacterial activity against Escherichia coli ATCC 25922 assessed as inhibition of bacterial growth by continuous dilution method
SMILES,MIC [1] [mg/L],MIC [2] [mg/L],MIC [3] [mg/L],MIC [4] [mg/L],MIC [5] [mg/L],MIC [6] [mg/L],MIC [7] [mg/L],MIC [8] [mg/L],MIC [9] [mg/L],MIC [10] [mg/L],MIC [11] [mg/L]
CC(=O)Nc1ccc(S(=O)(=O)C/C(=N/NC(=O)c2ccccc2)c2nccs2)cc1,256,32,128,32,256,256,16,128,256,4,64
CC(=O)Nc1ccc(S(=O)(=O)/C(=C\c2nccs2)C(=O)c2nccs2)cc1,8,16,32,4,64,16,16,128,128,128,128
C=CCO/N=C(/CS(=O)(=O)c1ccc(N)cc1)c1nccs1,128,16,64,32,32,32,32,64,64,16,16
C#CCO/N=C(/CS(=O)(=O)c1ccc(N)cc1)c1nccs1,64,64,64,32,64,32,32,64,64,32,32
C=CCO/N=C(/CS(=O)(=O)c1ccc(NC(C)=O)cc1)c1nccs1,64,32,128,32,64,64,64,128,128,64,16
CC(=O)Nc1ccc(S(=O)(=O)C/C(=N/NC(=O)Cc2ccccc2)c2nccs2)cc1,64,64,256,64,256,128,256,256,256,16,32
CC(=O)Nc1ccc(S(=O)(=O)C/C(=N/OCc2ccc(Cl)cc2Cl)c2nccs2)cc1,64,64,128,128,128,64,64,64,128,32,16
